Patent US20260226073A1 (AURIGENE ONCOLOGY LIMITED, priority 2023, published 2026)

Key:
[1] = biological target: T1, human recombinant CBL-b (human Biotin CBL-b recombinant protein a.a. 39-426) (Homo sapiens, UniProt Q13191); test: Biochemical assay for CBL-b inhibition (ligand displacement TR-FRET); type: binding; details: 50 nM CBL-b, 0.3 μM Bodipy FL-Probe, read-out: IC50 (CBL-b inhibition, group)
T1 construct: human Biotin CBL-b recombinant protein a.a; 39-426; Biotin (biotinylated); made in house
T1 sequence (Q13191 39-426): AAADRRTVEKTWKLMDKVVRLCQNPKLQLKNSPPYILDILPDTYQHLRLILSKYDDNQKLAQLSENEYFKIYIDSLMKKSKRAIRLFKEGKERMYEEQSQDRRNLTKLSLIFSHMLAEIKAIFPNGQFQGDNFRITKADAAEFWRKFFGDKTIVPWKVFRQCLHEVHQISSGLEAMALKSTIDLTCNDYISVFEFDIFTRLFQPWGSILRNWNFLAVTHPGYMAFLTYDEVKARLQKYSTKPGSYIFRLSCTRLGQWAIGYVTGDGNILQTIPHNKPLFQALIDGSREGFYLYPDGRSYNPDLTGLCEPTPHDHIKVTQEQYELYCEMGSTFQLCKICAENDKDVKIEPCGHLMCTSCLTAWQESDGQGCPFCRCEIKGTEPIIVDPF
Summary of the method: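 Ligand-displacement TR-FRET: 0.3 μM Bodipy FL probe competes with compound for 50 nM biotin-CBL-b (aa 39-426) after a 60 min RT compound pre-incubation; terbium-streptavidin detection, 60 min each step. Dose-response sigmoidal fitting gave IC50 and % maximum inhibition.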

[2] = tested on: NFAT signaling pathway in Jurkat NFAT reporter cells; test: Jurkat NFAT reporter assay; type: cell-based; details: Homo sapiens, 30 min with compound, then soluble anti-human CD3/CD28 antibody for 6 hours, luciferase readout, read-out: EC50 (Group)
Summary of the method: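 Results are expressed as fold change relative to stimulated, inhibitor-free cells. Stimulation was 6 h with soluble anti-human CD3/CD28 antibody after a 30-min exposure of 1×10^5 NFAT-RE luciferase Jurkat reporter cells per well to the Cbl-b inhibitor; signal read by Bio-Glo bioluminescence.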

Structure (SMILES) | IC50 [1] | EC50 [2]
Cn1cnnc1CC1(c2ccc3c(c2)C(=O)N(c2cc(CNC4CC(F)(F)C4)cc(C(F)(F)F)n2)C3)COC1 [Compound 74, 2-(4-(((3,3-Difluorocyclobutyl)amino)methyl)-6-(trifluoromethyl)pyridin-2-yl)-6-(3-((4-methyl-4H-1,2,4-triazol-3-yl)methyl)oxetan-3-yl)isoindolin-1-one] | 80 to 300 nM | 1000 to 10000 nM
C[C@@H]1C[C@H](C)CN(Cc2cc(N3Cc4ccc(C5(Cc6nncn6C)CCC5)cc4C3=O)nc(C(F)(F)F)c2)C1 [Compound 82, 2-(4-(((3S,5R)-3,5-Dimethylpiperidin-1-yl)methyl)-6-(trifluoromethyl)pyridin-2-yl)-6-(1-((4-methyl-4H-1,2,4-triazol-3-yl)methyl)cyclobutyl)isoindolin-1-one] | < 80 nM | < 300 nM
CC(Cc1nncn1C)c1ccc2c(c1)C(=O)N(c1cc(CN3CCC[C@H](C)C3)cc(Cl)n1)C2 (stereo partly drawn) [Compound 83, 2-(6-Chloro-4-(((S)-3-methylpiperidin-1-yl)methyl)pyridin-2-yl)-6-(1-(4-methyl-4H-1,2,4-triazol-3-yl)propan-2-yl)isoindolin-1-one] | < 80 nM | < 300 nM
CC(Cc1nncn1C)c1ccc2c(c1)C(=O)N(c1cc(CN3C[C@H](C)C[C@H](C)C3)cc(Cl)n1)C2 (stereo partly drawn) [Compound 84, 2-(6-Chloro-4-(((3S,5R)-3,5-dimethylpiperidin-1-yl)methyl)pyridin-2-yl)-6-(1-(4-methyl-4H-1,2,4-triazol-3-yl)propan-2-yl)isoindolin-1-one] | 80 to 300 nM | 300 to 1000 nM
C[C@H]1CCCN(Cc2cc(Cl)nc(N3Cc4ccc(C5(Cc6nncn6C)CC(C#N)C5)cc4C3=O)c2)C1 (some centres unmarked) [Compound 85] | < 80 nM | < 300 nM
Cn1cnnc1CC1(c2ccc3c(c2)C(=O)N(c2cc(CNC4(C)CCC4)cc(C(F)(F)F)n2)C3)COC1 [Compound 88, 6-(3-((4-Methyl-4H-1,2,4-triazol-3-yl)methyl)oxetan-3-yl)-2-(4-(((1-methyl-cyclobutyl)amino)methyl)-6-(trifluoromethyl)pyridin-2-yl)isoindolin-1-one] | 300 to 5000 nM | 300 to 1000 nM
C[C@H]1CCCN(Cc2cc(Cl)nc(N3Cc4ccc(C5(Cc6nncn6C)CCC5)cc4C3=O)c2)C1 [Compound 89, (S)-2-(6-Chloro-4-((3-methylpiperidin-1-yl)methyl)pyridin-2-yl)-6-(1-((4-methyl-4H-1,2,4-triazol-3-yl)methyl)cyclobutyl)isoindolin-1-one] | < 80 nM | < 300 nM
Cn1cnnc1CC1(c2ccc3c(c2)C(=O)N(c2cc(CN4CCCc5c4cnn5C)cc(C(F)(F)F)n2)C3)COC1 [Compound 92, 2-(4-((1-Methyl-1,5,6,7-tetrahydro-4H-pyrazolo[4,3-b]pyridin-4-yl)methyl)-6-(trifluoromethyl)pyridin-2-yl)-6-(3-((4-methyl-4H-1,2,4-triazol-3-yl)methyl)oxetan-3-yl)isoindolin-1-one] | 300 to 5000 nM | 1000 to 10000 nM
C[C@H]1CCCN(Cc2cc(N3Cc4ccc(C5(Cc6nncn6C)COC5)cc4C3=O)cc3occc23)C1 [Compound 94, (S)-6-(3-((4-Methyl-4H-1,2,4-triazol-3-yl)methyl)oxetan-3-yl)-2-(4-((3-methyl-piperidin-1-yl)methyl)benzofuran-6-yl)isoindolin-1-one] | < 80 nM | 300 to 1000 nM
Cc1cc(CNCC2CC2)cc(N2Cc3ccc(-c4ccc(Cl)cc4-c4nncn4C)cc3C2=O)n1 [Compound 101, 6-(4-Chloro-2-(4-methyl-4H-1,2,4-triazol-3-yl)phenyl)-2-(4-(((cyclopropylmethyl)amino)methyl)-6-methylpyridin-2-yl)isoindolin-1-one] | < 80 nM | < 300 nM
Cn1cnnc1-c1cc(Cl)ccc1-c1ccc2c(c1)C(=O)N(c1cc(CNCC3CC3)cc(Cl)n1)C2 [Compound 102, 6-(4-Chloro-2-(4-methyl-4H-1,2,4-triazol-3-yl)phenyl)-2-(6-chloro-4-(((cyclopropylmethyl)amino)methyl)pyridin-2-yl)isoindolin-1-one] | < 80 nM | < 300 nM
Cc1cc(C(C)NCC2CC2)cc(N2Cc3ccc(-c4ccc(Cl)cc4-c4nncn4C)cc3C2=O)n1 (centres unmarked) [Compound 103, 6-(4-Chloro-2-(4-methyl-4H-1,2,4-triazol-3-yl)phenyl)-2-(4-(1-((cyclopropylmethyl)amino)ethyl)-6-methylpyridin-2-yl)isoindolin-1-one] | < 80 nM | < 300 nM
Cn1cnnc1-c1cc(Cl)ccc1-c1ccc2c(c1)C(=O)N(c1cc(CNC3CCCC3)cc(Cl)n1)C2 [Compound 106, 6-(4-Chloro-2-(4-methyl-4H-1,2,4-triazol-3-yl)phenyl)-2-(6-chloro-4-((cyclo-pentylamino)methyl)pyridin-2-yl)isoindolin-1-one] | 80 to 300 nM | 300 to 1000 nM
CC(NCC1CCC1)c1cc(Cl)nc(N2Cc3ccc(-c4ccc(Cl)cc4-c4nncn4C)cc3C2=O)c1 (centres unmarked) [Compound 107, 6-(4-Chloro-2-(4-methyl-4H-1,2,4-triazol-3-yl)phenyl)-2-(6-chloro-4-(1-((cyclo-butylmethyl)amino)ethyl)pyridin-2-yl)isoindolin-1-one] | < 80 nM | < 300 nM
C[C@H]1CCCN(Cc2cc(Cl)nc(N3Cc4ccc(-c5ccc(C#N)cc5-c5nncn5C)cc4C3=O)c2)C1 [Compound 112, (S)-4-(2-(6-Chloro-4-((3-methylpiperidin-1-yl)methyl)pyridin-2-yl)-3-oxoiso-indolin-5-yl)-3-(4-methyl-4H-1,2,4-triazol-3-yl)benzonitrile] | < 80 nM | < 300 nM
C[C@H]1CCCN(Cc2cc(Cl)nc(N3Cc4ccc(-c5ccc(Cl)cc5-c5nncn5C)cc4C3=O)c2)C1 [Compound 113, (S)-6-(4-Chloro-2-(4-methyl-4H-1,2,4-triazol-3-yl)phenyl)-2-(6-chloro-4-((3-methylpiperidin-1-yl)methyl)pyridin-2-yl)isoindolin-1-one] | < 80 nM | < 300 nM
Cn1cnnc1-c1ccccc1-c1ccc2c(c1)C(=O)N(c1cc(CNCCC(F)(F)F)cc(Cl)n1)C2 [Compound 116, 2-(6-Chloro-4-(((3,3,3-trifluoropropyl)amino)methyl)pyridin-2-yl)-6-(2-(4-methyl-4H-1,2,4-triazol-3-yl)phenyl)isoindolin-1-one] | < 80 nM | 1000 to 10000 nM
C[C@@H]1C[C@H](C)CN(Cc2cc(N3Cc4ccc(-c5ccccc5-c5nncn5C)cc4C3=O)nc(C(F)(F)F)c2)C1 [Compound 117, 2-(4-(((3S,5R)-3,5-Dimethylpiperidin-1-yl)methyl)-6-(trifluoromethyl)pyridin-2-yl)-6-(2-(4-methyl-4H-1,2,4-triazol-3-yl)phenyl)isoindolin-1-one] | 80 to 300 nM | 1000 to 10000 nM
Cn1cnnc1-c1cc(Cl)ccc1-c1ccc2c(c1)C(=O)N(c1cc(Cl)cc(CNCC3CC3)c1)C2 [Compound 119, 6-(4-Chloro-2-(4-methyl-4H-1,2,4-triazol-3-yl)phenyl)-2-(3-chloro-5-(((cyclo-propylmethyl)amino)methyl)phenyl)isoindolin-1-one] | < 80 nM | 300 to 1000 nM
CC(NCC1CC(F)(F)C1)c1cc(Cl)nc(N2Cc3ccc(-c4ccc(Cl)cc4-c4nncn4C)cc3C2=O)c1 (centres unmarked) [Compound 121, 6-(4-Chloro-2-(4-methyl-4H-1,2,4-triazol-3-yl)phenyl)-2-(6-chloro-4-(1-(((3,3-difluorocyclobutyl)methyl)amino)ethyl)pyridin-2-yl)isoindolin-1-one] | < 80 nM | < 300 nM
Cc1cc(CNC(C)C2CC2)cc(N2Cc3ccc(-c4ccc(Cl)cc4-c4nncn4C)cc3C2=O)n1 (centres unmarked) [Compound 122, 6-(4-Chloro-2-(4-methyl-4H-1,2,4-triazol-3-yl)phenyl)-2-(4-(((1-cyclopropyl-ethyl)amino)methyl)-6-methylpyridin-2-yl)isoindolin-1-one] | < 80 nM | < 300 nM
Cc1cc(CNCC2CC2)cc(N2Cc3ccc(-c4ccc(F)cc4-c4nncn4C)cc3C2=O)n1 [Compound 127, 2-(4-(((Cyclopropylmethyl)amino)methyl)-6-methylpyridin-2-yl)-6-(4-fluoro-2-(4-methyl-4H-1,2,4-triazol-3-yl)phenyl)isoindolin-1-one] | < 80 nM | < 300 nM
CC(NCc1cc(Cl)nc(N2Cc3ccc(C4(Cc5nncn5C)COC4)cc3C2=O)c1)C1CC1 (centres unmarked) [Compound 131, 2-(6-Chloro-4-(((1-cyclopropylethyl)amino)methyl)pyridin-2-yl)-6-(3-((4-methyl-4H-1,2,4-triazol-3-yl)methyl)oxetan-3-yl)isoindolin-1-one] | < 80 nM | < 300 nM
Cn1cnnc1-c1cc(Cl)ccc1-c1ccc2c(c1)C(=O)N(c1cc(CNCC3CC3)cc(C(F)(F)F)n1)C2 [Compound 132, 6-(4-Chloro-2-(4-methyl-4H-1,2,4-triazol-3-yl)phenyl)-2-(4-(((cyclopropylmethyl)amino)methyl)-6-(trifluoromethyl)pyridin-2-yl)isoindolin-1-one] | < 80 nM | < 300 nM
Cc1nc(CNCC2CC2)cc(N2Cc3ccc(-c4ccc(F)cc4-c4nncn4C)cc3C2=O)n1 [Compound 133, 2-(6-(((Cyclopropylmethyl)amino)methyl)-2-methylpyrimidin-4-yl)-6-(4-fluoro-2-(4-methyl-4H-1,2,4-triazol-3-yl)phenyl)isoindolin-1-one] | < 80 nM | 1000 to 10000 nM
